In patent US4634782A, “7-fluoro-dihydro PGI compounds” (Hoffmann-La Roche Inc., priority 1985, dated 1987):
Counter-ions that a name gives are not always drawn. Like-named read-outs stand apart in the source and are kept apart here.

Columns and labels:
[1] = tested on: cyclic AMP in human platelet rich plasma (PRP); test: Cyclic AMP production in human blood platelets (platelet rich plasma), protein binding method of Brown et al.; type: cell-based; conditions: 0.1 mM, percent increase in cyclic AMP compared to basal (vehicle alone), pH 7.4, 22 C, read-out: Cyclic AMP Production, o/o stimulative of Basal at 0.1 mM
Experimental: Cyclic AMP prevents aggregation of blood platelets. Through increasing cyclic AMP, the compounds of this invention prevent blood platelet aggregation. That the compounds of this invention increase cyclic AMP can be seen from the following test.
In this test, human platelet rich plasma (PRP) was prepared by centrifugation of blood treated with 0.38% by weight sodium citrate at 180×g (times gravity) for ten minutes. The PRP ([…] containing approximately 2×10^7 platelets) is incubated for two minutes at 22 C, with and without the test compound, in a Tris-HCl buffer for ten minutes pH 7.4 containing 5.5 mM HCl, 1 mM Mg SO4, 5 mM Na2 H PO4, 120 mM NaCl, and 5.5 mM glucose in a fluid volume of […]. The reaction was terminated by placing the samples in boiling water for 3 minutes. The boiled extract was assayed for cyclic AMP by the protein binding method of Brown et al. (Biochemical Journal 121:561-562, 1971). The activity of this test compound at 0.1 mM is measured as the percent increase in cyclic AMP production compared to base 1 (vehicle alone) production.

[2] = tested on: human platelet rich plasma (PRP); test: Inhibition of blood platelet aggregation in human platelet rich plasma (PRP), test of Professor Born, optical density; type: cell-based; conditions: 0.45 ml human PRP, two separate tests, two donors
Experimental: That the 7-fluoro prostacyclins are potent blood platelet anti-aggregating agents can be seen when the following compounds:
were tested against PGI2 for their blood platelet anti-aggregation properties by the standard test described by Professor Born in Nature, 194 927, (1962).
In this test, the ability of the above compounds to inhibit aggregation of blood platelets in 0.45 ml of human platelet rich plasma (PRP) was measured. Aggregation was induced by the addition of any one of arachidonic acid (AA), platelet activating factor (PAF) or collagen. PAF and its synthesis is disclosed by Hirth and Barner in Helv. Chim. Acta. Vol. 65; Fasc. 3, page 1059 (1982) [Compound 1-a on page 1061]. By titration of AA, collagen and PAF at various concentrations in 0.45 ml samples of PRP, the minimum amount of AA, collagen and PAF which produces maximum blood platelet aggregation in a given sample of human platelet rich plasma (PRP) was determined. This minimum amount was used when the compounds set forth above were tested for their ability to inhibit blood platelet aggregation in samples of PRP as described below.
In carrying out the tests, various concentrations of the test compound were added to separate samples of human platelet rich plasma (PRP). To each of these samples of PRP containing a specific concentration of one of the above test compounds, there was added the minimum amount of AA, PAF, or collagen calculated above. The controls are samples of PRP containing no test compound but only the minimum amount of AA, PAF, or collagen determined above. The percent aggregation of the various samples was determined by measuring the optical density of the samples and comparing them with the optical density of the controls. This determination was made two minutes after the maximum first phase response of PAF, AA or collagen. This determination was made with freshly prepared samples of test compounds. A second determination was made in the same manner with samples of PRP two hours after the addition of AA, PAF or collagen. The IC50, the dose at which the optical density of the samples decrease to a value which is fifty (50%) percent of the value of the control was determined by the method disclosed by Professor Born's article. The IC50 values for the minimum dose were made from concentration response curve. These IC50 's were determined in two separate tests using PRP from two separate donors. The results of the minimum dose of each of the test compounds which reduces fifty (50%) percent of the aggregation of the platelets produced by any one of AA, PAF, or collagen is set forth in the following Table: […]

[3] = Platelet, aggregation induced by minimum amount of arachidonic acid (AA), read-out: Aggregation IC50, AA
[4] = aggregation induced by minimum amount of platelet activating factor (PAF), read-out: Aggregation IC50, PAF
[5] = Platelet, aggregation induced by minimum amount of collagen, read-out: Aggregation IC50, Collagen

SMILES	activation at 100 µM [1]	IC50 [2, 3]	IC50 [2, 4]	IC50 [2, 5]
CCCCC[C@H](O)CC[C@@H]1[C@@H]2[C@H](C[C@H]1O)O/C(=C\CCCC(=O)O)[C@H]2F [Compound A, (5Z,7beta,9alpha,11alpha,15S)-6,9-epoxy-7-fluoro-11,15-dihydroxy-prost-5-en-1-oic acid monosodium salt]	998%	23 nM	15 nM	–
CCCC[C@H](F)[C@H](O)CC[C@@H]1[C@@H]2[C@H](C[C@H]1O)O/C(=C\CCCC(=O)O)[C@H]2F [Compound B, (5Z,7beta,9alpha,11alpha,15R,16S)-6,9-epoxy-7,16-difluoro-11,15-dihydroxy-prost-5-en-1-oic acid monosodium salt]	–	20 nM	6 nM	6 nM
CCCCC[C@H](O)/C=C/[C@@H]1[C@H]2C/C(=C/CCCC(=O)O)O[C@H]2C[C@H]1O [PGI2, reference compound]	–	0.45 nM	0.15 nM	2 nM
